Experimental data taken from EP3748362A1, “IN VITRO METHOD FOR DETECTING RENAL DISEASE” (Fundacion Instituto De Investigacion Sanitaria Fundacion …, priority 2019, dated 2020).

How the values were obtained:
[1] = test system: TRAF3; assay: Renal TRAF3 (western blot), unilateral ureteral obstruction in mice; assay type: in vivo; conditions: paricalcitol 750 ng/kg/day i.p., studied after 5 days
Protocol: All animal procedures were performed according to the guidelines of animal research in the European Community and with prior approval by the Ethics Committee of the Health Research of the IIS-Fundacion Jiménez Díaz. For in vivo studies, mice received a daily intraperitoneal injection of the VDRA Paricalcitol starting 48 hours prior to induction of kidney damage.
At the time of sacrifice, animals were anesthetized with 5 mg/kg xylazine (Rompun, Bayer AG) and 35 mg/kg ketamine (Ketolar, Pfizer) and the kidneys perfused in situ with cold saline before removal. Then, kidney portions were fixed in formalin buffer for immunohistochemistry studies or immediately frozen in liquid nitrogen for gene and protein studies.
Unilateral ureteral obstruction (UUO) was established in male C57BL/6 mice, under isoflurane-induced anesthesia. […]
For western blot, cell (25 µg/lane) and kidney (100-150 µg/lane) protein extracts were separated on 6%-12% polyacrylamide-SDS gels under reducing conditions. […] Autoradiographs were scanned using the Gel Doc™ EZ imager and analyzed with the Image Lab 3.0 software (BioRad).

[2] = test system: CIAP1-TRAF3 complexes; assay: TRAF3 immunoprecipitation (ubiquitin-Lys-48, CIAP1) in PBMCs from ESRD patients; assay type: in vivo, human
Protocol: Intracellular protein and mRNA levels were measured in PBMCs from ESRD patients on hemodialysis. Inclusion criteria were as follows: age >45 years; male sex; informed consent; and absence of active inflammatory, infectious, or malignant diseases at the initiation or during the study. This study was approved by the IIS-Fundación Jiménez Diaz Ethics Committee. Patients were enrolled after providing written informed consent. PBMCs were separated from whole blood samples (30 ml into EDTA tubes) by a density gradient centrifugation method using Ficoll density gradient centrifugation. In total, 50x10^6 of PBMCs were obtained from 30 ml of whole blood and 6x10^6 PBMCs were used to isolate protein, RNA and nuclear/cytosolic protein levels using the NE-PER Reagent (Pierce) following the manufacturer's instructions.
Cells growing in tissue culture dish plates, were lysed in 300-500 µl Triton-NP-40 lysis buffer [50 mmol/L Tris-HCl pH 8, 150 mmol/L NaCl, 1 mmol/L phenylmethylsulphonylfluoride, 1% NP-40/IGEPAL, and a phosphatase-inhibitor cocktail (Set II, Calbiochem)], scraped off the dish and incubated 1 hour to 4°C with shaking. Cell lysates were precleared by incubating with 10 µl protein A-agarose bead slurries (0.5 mL agarose/2 mL phosphate-buffered saline) for 30 min at 4°C, and then centrifuged three times for 5 minutes at 2500 rpm, to wash supernatants. […]

With `C[C@H](/C=C/[C@H](C)C(C)(C)O)[C@H]1CC[C@H]2/C(=C/C=C3C[C@@H](O)C[C@H](O)C3)CCC[C@]12C` [paricalcitol] the “renal TRAF3 protein levels” value [1] was “restored renal TRAF3 protein levels to values of control mice”, the “TRAF3 ubiquitination and CIAP1-TRAF3 interaction” value ([2]; PBMCs of paricalcitol-treated ESRD patients, TRAF3 immunoprecipitation) was “significantly lowering to values in the range of healthy controls” and the CIAP-1 levels ([2]; whole protein extracts of PBMCs, paricalcitol-treated ESRD patients) was “close to control values”.
